Experimental data reported in US20120003335A1, “CONSTITUTIVE ANDROSTANE RECEPTOR (CAR) AS A THERAPEUTIC TARGET FOR OBESITY AND TYPE TWO DIABETES” (UNIVERSITY OF PITTSBURGH-OF THE COMMONWEALTH SYSTEM OF …, priority 2008, published 2012).

Assays:
CAR-/- mice = assay: Lipogenic and gluconeogenic gene expression in CAR-/- mice; assay type: in vivo; settings: C57BL/6J and SvJ129 mixed background, HFD five week
Excerpt: The suppression of lipogenic and gluconeogenic gene expression was also seen in TCPOBOP-treated wild type mice of C57BL/6J and SvJ129 mixed background (data not shown).

HFD-fed C57BL/6j mice = assay: Fasting serum glucose and lipid profile, HFD-fed mice; assay type: in vivo
Excerpt: (§1) Since obesity is strongly associated with insulin resistance, a typical characteristic of type two diabetes, whether the CAR agonist can also improve insulin sensitivity was examined. […] The insulin sensitizing effect of TCPOBOP was also evident in ob/ob mice (FIGS. 3C and 3D).

[1] = system: HFD-fed C57BL/6J male mice; assay: Insulin sensitivity by GTT and ITT, HFD-fed mice; assay type: in vivo; settings: five weeks treatment
Excerpt: as §1

[2] = system: C57BL/6J mice fed with high fat diet (HFD); assay: Prevention of high fat diet-induced obesity (body weight, MRI body composition); assay type: in vivo; settings: male mice, HFD five weeks, 0.5 mg/kg once a week
Description: Eight-week male C57BL/6J mice were fed with high fat diet (HFD) for five weeks and simultaneously treated with the CAR agonist TCPOBOP (0.5 mg/kg, once a week) or vehicle (DMSO). […] The effect of TCPOBOP on the fat mass was so dramatic that the differences were obvious and significant after one week of drug treatment (FIGS. 1A-b and 1A-c). At the end of five-week treatment, the body weight differences between TCPOBOP group and vehicle group were completely accountable by the gain of fat mass in the TCPOBOP group (FIG. 1B).

HFD-fed mice [3] = assay: Leptin and adiponectin production and food intake; assay type: in vivo
Excerpt: Leptin is an adipokine primarily produced in WAT. […] HFD induced leptin mRNA expression as expected (FIG. 8A). […] The decreased production of leptin may have resulted from decreased fat mass, and the inhibition of food intake may have contributed to the anti-obesity effect.

ob/ob mice [4] = assay: Fasting serum glucose and lipid profile, ob/ob mice; assay type: in vivo
Excerpt: as §1

[5] = system: adipose triglyceride lipase (ATGL), hormone sensitive lipase (HSL); assay: Lipase expression in WAT; parameters: species or system mice; settings: mouse, in vivo
[6] = system: C57BL/6J female mice fed with HFD; assay: Treatment of pre-existing HFD-induced obesity; assay type: in vivo
Description: To determine whether CAR activation is effective in controlling obesity in mice with pre-existing obesity, C57BL/6J female mice were fed with HFD for six weeks, followed by 6 weeks of TCPOBOP (0.5 mg/kg, once a week) treatment when mice remained on HFD.

[7] = system: PPARα and its target genes; assay: Expression of beta-oxidation genes in liver and skeletal muscle; assay type: in vivo, mice
Excerpt: (§2) The effect of TCPOBOP on the fatty acid oxidation in the liver and skeletal muscle also was investigated. […] These include the suppression of long-chain acyl-CoA dehydrogenase (Aacdl), medium-chain acyl CoA dehydrogenase (Acadm) and HMG-CoA synthase (HMGCS2).

Cyp2b10 = settings: 0.5 mg/kg once a week
[8] = system: lipogenic genes (Srebp-1c, Acc-1, Fas, Scd-1) and gluconeogenic enzymes (G6p, Pepck); assay: Lipogenic and gluconeogenic gene expression in tissues of HFD-fed mice; assay type: in vivo
Excerpt: To understand the mechanisms by which CAR inhibits obesity and improves insulin sensitivity, gene expression was profiled in several relevant tissues, including the liver, skeletal muscle, white adipose tissue (WAT) and brown adipose tissue (BAT) in HFD-fed C57BL/6J mice treated with TCPOBOP for one week.
Since excessive VLDL production and triglyceride secretion contribute to the pathogenesis of hypertriglyceridemia, obesity and diabetes, VLDL secretion rate after a 5-week TCPOBOP treatment also was evaluated. […] The inhibition of VLDL secretion was consistent with the lower serum triglyceride level (data not shown) and inhibition of hepatic lipogenesis (FIG. 5A) in these animals.

ob/ob mice [9] = assay: Insulin sensitivity by GTT and ITT, ob/ob mice; assay type: in vivo
Excerpt: as §1

HFD-fed mice [10] = assay: Hepatic steatosis, adipose tissue size and adipocyte morphology; assay type: in vivo; settings: treated five weeks
[11] = system: gastrocnemius muscle derived from HFD-fed mice; assay: Mitochondrial β-oxidation rate in gastrocnemius muscle ([14C]-oleate)
Excerpt: as §2

ob/ob mice [12] = assay: Obesity in genetically leptin deficient ob/ob mice; assay type: in vivo
Excerpt: TCPOBOP was also effective in the genetically leptin deficient and obese ob/ob mice. In this experiment, 7-week old female ob/ob mice were maintained in chow diet and treated with TCPOBOP or vehicle for eight weeks.

HFD-fed mice [13] = assay: VLDL secretion rate; assay type: in vivo; settings: after 5-week treatment
[14] = system: BAT genes involved in energy expenditure; assay: BAT energy expenditure gene expression and oxygen consumption; parameters: species or system mice; settings: mouse, in vivo
Excerpt: BAT plays an important role in regulating energy expenditure. The smaller BAT in TCPOBOP-treated mice prompted an examination of the expression of BAT genes involved in energy expenditure.

[15] = short-term (one week) treatment
[16] = HFD-fed C57BL/6J mice, treated one week

**Q.** Which “expression of lipogenic and gluconeogenic genes in liver, skeletal muscle, WAT, BAT” value (CAR-/- mice) does the source give for `Clc1cnc(Oc2ccc(Oc3ncc(Cl)cc3Cl)cc2)c(Cl)c1` [TCPOBOP, 1,4-bis[2-(3,5 dichloropyridyloxy)] benzene] here?
**A.** The value was “none of the lipogenic and gluconeogenic genes was significantly altered”.

**Q.** And the “Fasting Glucose” value (HFD-fed C57BL/6j mice)?
**A.** The value was 102.8 ± 17.7 mg/dL.

**Q.** And the “Free Fatty Acid” value (HFD-fed C57BL/6j mice; fasting serum)?
**A.** Its value is 6.8 ± 0.6 µM.

**Q.** What about the Insulin (HFD-fed C57BL/6j mice; fasting serum) of the same compound?
**A.** Its Insulin is 1.57 ± 0.37 ng/mL.

**Q.** And the “Total Cholesterol” value (HFD-fed C57BL/6j mice; fasting serum)?
**A.** The value was 89.7 ± 5.3 mg/dL.

**Q.** What about the “Total Triglyceride” value (HFD-fed C57BL/6j mice; fasting serum) of the same compound?
**A.** Its value is 132.8 ± 17.7 mg/dL.

**Q.** And the “insulin sensitivity (GTT and ITT)” value [1]?
**A.** Its value is “significantly improved insulin sensitivity”.

**Q.** And the “lean mass, TCPOBOP vs vehicle group” value [2]?
**A.** The value was “not significantly different”.

**Q.** And the “gain of body weight” value ([2]; after two weeks of drug treatment, vs vehicle (DMSO))?
**A.** Its value is “significantly inhibited gain of body weight”.

**Q.** And the “lean to body weight ratio” value ([2]; ratio decreased in vehicle-treated mice)?
**A.** The value was “remained steady”.

**Q.** And the “gain of fat mass (MRI)” value ([2]; vs vehicle)?
**A.** The value was “significantly inhibited the gain of fat mass”.

**Q.** What about the expression of adiponectin (HFD-fed mice [3]; HFD-fed mice) of the same compound?
**A.** Its expression of adiponectin is “increased expression of adiponectin”.

**Q.** What about the “leptin mRNA level vs vehicle-treated counterparts” value (HFD-fed mice [3]; HFD-fed mice) of the same compound?
**A.** The value was “dramatically lower”.

**Q.** What about the “leptin production at the protein level” value (HFD-fed mice [3]; HFD-fed mice) of the same compound?
**A.** Its value is “decreased leptin production”.

**Q.** What about the food intake (HFD-fed mice [3]; mouse, in vivo) of the same compound?
**A.** Its food intake is “significantly reduced the food intake”.

**Q.** What about the “Free Fatty Acid” value (ob/ob mice [4]) of the same compound?
**A.** Its value is 21.4 ± 1.54 µM.

**Q.** What about the “Total Cholesterol” value (ob/ob mice [4]) of the same compound?
**A.** Its value is 90.2 ± 9.9 mg/dL.

**Q.** What about the “Total Triglyceride” value (ob/ob mice [4]) of the same compound?
**A.** The value was 126.3 ± 13.7 mg/dL.

**Q.** What about the “expression of adipose triglyceride lipase (ATGL) in WAT” value [5] of the same compound?
**A.** Its value is “induced in WAT”.

**Q.** What about the “expression of hormone sensitive lipase (HSL) in WAT” value [5] of the same compound?
**A.** The value was “but not the hormone sensitive lipase (HSL)”.

**Q.** What about the fat mass ([6]; HFD six weeks, then 6 weeks 0.5 mg/kg once a week on HFD) of the same compound?
**A.** Its fat mass is “inhibition of gain of fat mass”.

**Q.** And the body weight course ([6]; HFD six weeks, then 6 weeks 0.5 mg/kg once a week on HFD, vehicle group continued to gain)?
**A.** The body weight course was “stabilized the mouse body weight”.

**Q.** What about the “body weight vs vehicle group” value ([6]; after 5 weeks of drug treatment) of the same compound?
**A.** The value was “significantly lower than the vehicle group”.

**Q.** And the “expression of PPARα and its target genes involved in β-oxidation and ketogenesis, liver and skeletal muscle” value ([7]; chronic (five weeks) treatment)?
**A.** Its value is “significantly suppressed”.

**Q.** What about the “expression of PPARα” value [7, 15] of the same compound?
**A.** The value was “modestly suppressed”.

**Q.** And the “expression of genes related to β-oxidation” value [7, 15]?
**A.** The value was “little effect”.

**Q.** What about the “Cyp2b10 gene expression in the liver” value (Cyp2b10) of the same compound?
**A.** The value was “activation of Cyp2b10”.

**Q.** And the “Fas and Scd-1 gene expression in skeletal muscle, BAT and WAT” value [8, 16]?
**A.** Its value is “Significant inhibition”.

**Q.** What about the “expression of Acc-1 in BAT” value [8, 16] of the same compound?
**A.** Its value is “significantly inhibited”.

**Q.** And the “expression of lipogenic genes Srebp-1c, Acc-1, Fas and Scd-1 in the liver” value [8, 16]?
**A.** Its value is “suppressed the expression of lipogenic genes”.

**Q.** And the “expression of glucose-6-phosphatase (G6p) and phosphoenolpyruvate carboxykinase (Pepck)” value ([8]; after 5-week treatment)?
**A.** Its value is “significantly inhibited”.

**Q.** What about the “insulin sensitizing effect (GTT and ITT)” value (ob/ob mice [9]) of the same compound?
**A.** Its value is “also evident”.

**Q.** And the adipocyte morphology (HFD-fed mice [10])?
**A.** The adipocyte morphology was “adipocyte hypotrophy”.

**Q.** What about the hepatic steatosis (HFD-fed mice [10]) of the same compound?
**A.** The hepatic steatosis was “ameliorated hepatic steatosis”.

**Q.** And the “sizes of abdomen WAT and BAT” value (HFD-fed mice [10])?
**A.** Its value is “decreased sizes of abdomen WAT and BAT”.

**Q.** And the “substrate switch on addition of pyruvate” value ([11]; pyruvate added to incubation buffer, vehicle mitochondria failed to switch)?
**A.** The value was “showed significant switch”.

**Q.** And the “accumulation of radiolabeled intermediates in the acid-soluble metabolite (ASM) (incomplete β-oxidation)” value ([11]; vs vehicle group)?
**A.** The value was “much more dramatic reduction”.

**Q.** And the “rate of [14C]-oleate oxidation to CO2 (complete β-oxidation)” value ([11]; vs vehicle group)?
**A.** Its value is “modest, although significant, decrease”.

**Q.** What about the “gain of fat mass” value (ob/ob mice [12]; 7-week old female ob/ob mice, chow diet, eight weeks treatment) of the same compound?
**A.** Its value is “less gain of fat mass”.

**Q.** And the “body weight vs vehicle group” value (ob/ob mice [12]; end of eight week treatment)?
**A.** Its value is “significantly lower body weight”.

**Q.** And the fat mass (ob/ob mice [12]; end of eight week treatment)?
**A.** The fat mass was “deceased fat mass”.

**Q.** And the lean mass (ob/ob mice [12]; end of eight week treatment)?
**A.** The lean mass was “increased lean mass”.

**Q.** What about the “VLDL secretion rate vs vehicle group” value (HFD-fed mice [13]) of the same compound?
**A.** Its value is “significantly reduced”.

**Q.** What about the “BAT expression of PGC-1b, mCPT-I, LCAD, D2, UCP-1, UCP-2 and UCP-3” value [14] of the same compound?
**A.** The value was “significantly increased”.

**Q.** What about the oxygen consumption [14] of the same compound?
**A.** Its oxygen consumption is “increased oxygen consumption”.
